Measurements from article PMC9728906 (2022).

What was measured:
[1] = system: human telomeric G-quadruplex DNA, AG3(TTAGGG)3 (DNA, G4) AGGGTTAGGGTTAGGGTTAGGG; experiment: fluorescence titration, modified Scatchard, non-linear fit (r versus Cf); settings: 100 mM KCl; 10 mM Tris-HCl, 1 mM Na2EDTA, pH 7.4, ≤10% ethylene glycol; 5 µM compound; average over sites
[2] = system: human telomeric G-quadruplex DNA, AG3(TTAGGG)3 (DNA, G4) AGGGTTAGGGTTAGGGTTAGGG; experiment: CD melting at 293 nm; settings: 100 mM KCl; 10 mM Tris-HCl, 1 mM Na2EDTA, pH 7.4, 10% ethylene glycol; equimolar 3.93 µM compound and DNA (1:1)
[3] = system: fluorescein-labelled telomeric G-quadruplex DNA (DNA, G4) AGGGTTAGGGTTAGGGTTAGGG; experiment: fluorescein fluorescence quenching; settings: 100 mM KCl; 10 mM Tris-HCl, 1 mM Na2EDTA, pH 7.4; 2 µM DNA; more than 90% quenching
[4] = system: human telomeric G-quadruplex DNA, AG3(TTAGGG)3 (DNA, G4) AGGGTTAGGGTTAGGGTTAGGG; experiment: fluorescence titration, Scatchard, two-line linear fit; settings: 100 mM KCl; 10 mM Tris-HCl, 1 mM Na2EDTA, pH 7.4, ≤10% ethylene glycol; 5 µM compound; site 1 of 2

SMILES | K [1] | ΔTm [2] | binding [3] | K1 [4]
CN(C)c1cc2c(Nc3ccc4c(cnn4Cc4ccccc4)c3)ncnc2cn1 | 2.65e+06 M⁻¹ | 9.9 °C | yes | 1.3e+08 M⁻¹
COc1ccc(CCCn2ncc3c2nc(N)n2nc(-c4ccco4)nc32)cc1 | 700000 M⁻¹ | 9.6 °C | yes | 1.55e+07 M⁻¹
